The structures appear in SMILES notation. Values after ≈ are worked out from the molar mass of the structure shown. Values joined by “and” are separate entries in the source; they are usually repeats but may differ in a detail not shown here. Equal values may be shown once. Read-outs that look alike come from different tables or passages of the source.

One data set can be described thus: Aqueous solubility. The data set is classed as physicochemical. Conditions: McIlvaine buffer pH 6.8, 2.5% DMSO, 24 h shaking; for solubility at 24 h: McIlvaine buffer pH 6.8 with 2.5% DMSO, pH 6.8, aqueous buffer, kinetic from dmso stock. As for the experimental part: Assay for Determination of Aqueous Solubility […] After 24 h of shaking, the solutions or suspensions are filtered and analyzed by LC-UV. The amount dissolved in buffer is compared to the amount dissolved in the acetonitrile/water (1/1) solution.

For a further data set, the system named is Caco-2 cells. The data set is described as follows: Drug transport across human Caco-2 cells. The data set is classed as in vitro ADME. Conditions: for PEAB / PEBA: Caco-2 monolayers, pH 7.2, 37° C.; for PEAB: apical-to-basal; for PEBA: basal-to-apical; for Efflux ratio: PEBA/PEAB, Caco-2.
Data set [1] addresses neutrophil elastase in human plasma (Homo sapiens (Human), UniProt P08246). As to the kind of experiment: Neutrophil elastase inhibitory activity in human plasma (zymosan-stimulated blood). In kind it is biochemical.
Method: Assay for the Determination of Neutrophil Elastase Inhibitory Activity in Human Plasma
Citrated blood from human healthy donors is mixed with zymosan suspension and incubated at room temperature. This leads to the stimulation of neutrophils and the release of neutrophil elastase into the plasma. The stimulated blood is centrifuged to generate the neutrophil elastase enriched plasma.
Various concentrations of the neutrophil elastase inhibitor are incubated with plasma. […] A dose response curve is generated to calculate the EC50 of the inhibitor.
Data set [2] in a line: Metabolic stability with human liver microsomes. The data set is classed as in vitro ADME. Conditions: for half-life at 1 μM: pH 7.6.
Data set [3] concerns the target Human neutrophil elastase (Homo sapiens (Human), UniProt P08246). The data set is described as follows: Human Neutrophil Elastase Assay. The data set is classed as biochemical. Conditions: substrate MeOSuc-Ala-Ala-Pro-Val-AMC 250 μM, pH 7.5.
Data set [4] in a line: Drug transport across human Caco-2 cells. The data set is classed as in vitro ADME. Conditions: human; for Papp B→A at 10 µM / Papp A→B at 10 µM: Caco-2, pH 7.2, Caco-2 monolayers, pH 7.2, 37° C.; for Papp B→A at 10 µM: basal-to-apical, read-out: PEBA; for efflux ratio at 10 μM: Caco-2, pH 7.2, PEBA/PEAB, Caco-2; for Papp A→B at 10 µM: apical-to-basal, read-out: PEAB.
From the text: Assay for Determination of Drug Transport Across Human Caco-2 Cells The assay provides information on the potential of a compound to pass the cell membrane, on the extent of oral absorption as well as on whether the compound is actively transported by uptake and/or efflux transporters. […] The compounds are assigned to permeability/absorption classes by comparison of the AB permeabilities with the AB permeabilities of reference compounds with known in vitro permeability and oral absorption in the human. Identical or similar permeabilities in both transport directions indicate passive permeation, vectorial permeability points to additional active transport mechanisms. […] Active transport is concentration-dependently saturable. Caco-2 cells (1-2*10^5 cells/cm^2 area) are seeded on filter inserts (Costar transwell polycarbonate or PET filters, 0.4 nm pore size) and cultured (DMEM) for 10 to 25 days. […] The transport solution (TL) is applied ici to the apical or basolateral donor side for measuring A-B or B-A permeability (3 filter replicates), respectively. The receiver side contains HTP-4 buffer supplemented with 2% BSA. […] Sampled receiver volumes are replaced with fresh receiver solution.
For the next data set, the system named is human hepatocytes. As to the kind of experiment: Metabolic stability with human hepatocytes. In kind it is in vitro ADME. Conditions: human hepatocyte suspension, 1 μM test compound, scaled with well stirred model. As for the experimental part: Assay for the Determination of Metabolic Stability with Human Hepatocytes The metabolic degradation of the test compound is assayed in a human hepatocyte suspension. Human hepatocytes (typically cryopreserved) are incubated in an appropriate buffer system (e.g. […] Samples are transferred into acetonitrile and pelleted by centrifugation (5 min) The supernatant is transferred to a new 96-deepwell plate, evaporated under nitrogen and resuspended. The decline of parent compound is analyzed by LC-MS/MS.

The next data set deals with cytochrome P450 2C9 (Homo sapiens (Human), UniProt P11712). As to the kind of experiment: Cytochrome P450 2C9 inhibition. Conditions: human liver microsomes, Diclofenac hydroxylation; read-out: CYP2C9 IC50. In kind it is in vitro ADME.
In another data set the target is cytochrome P450 2C8 (Homo sapiens (Human), UniProt P10632). The data set is described as follows: Cytochrome P450 2C8 inhibition. In kind it is in vitro ADME. Conditions: human liver microsomes, Amodiaquine deethylation; read-out: CYP2C8 IC50.
The next data set addresses cytochrome P450 2C19 (Homo sapiens (Human), UniProt P33261). The data set is described as follows: Cytochrome P450 2C19 inhibition. The data set is classed as in vitro ADME. Conditions: human liver microsomes, (S)-Mephenytoin hydroxylation; read-out: CYP2C19 IC50.
[5] abbreviates: EC50, neutrophil elastase enriched human plasma from zymosan-stimulated blood.
[6] abbreviates: pooled human liver microsomes, 1 mg/ml protein, 1 μM test compound, 37° C., NADPH.
Where [7] appears, read: IC50, human neutrophil elastase.
[8] abbreviates: neutrophil elastase enriched human plasma from zymosan-stimulated blood, read-out: EC50.
[9] abbreviates: human neutrophil elastase, read-out: IC50.

cytochrome P450 2C9, sequence (P11712 whole entry): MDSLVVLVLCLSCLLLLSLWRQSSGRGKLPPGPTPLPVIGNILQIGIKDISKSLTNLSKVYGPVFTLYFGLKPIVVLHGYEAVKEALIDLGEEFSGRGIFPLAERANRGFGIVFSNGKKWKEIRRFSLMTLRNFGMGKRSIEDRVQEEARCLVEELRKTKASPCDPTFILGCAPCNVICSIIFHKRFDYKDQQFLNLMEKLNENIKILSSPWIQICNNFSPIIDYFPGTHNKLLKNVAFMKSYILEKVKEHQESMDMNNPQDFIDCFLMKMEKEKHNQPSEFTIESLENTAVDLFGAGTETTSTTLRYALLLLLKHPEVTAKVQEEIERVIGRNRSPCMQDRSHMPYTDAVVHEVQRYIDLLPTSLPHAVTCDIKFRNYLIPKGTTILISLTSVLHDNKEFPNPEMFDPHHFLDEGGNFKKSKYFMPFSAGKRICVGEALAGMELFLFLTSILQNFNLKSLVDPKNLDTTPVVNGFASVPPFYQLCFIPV
cytochrome P450 2C8, sequence (P10632 whole entry): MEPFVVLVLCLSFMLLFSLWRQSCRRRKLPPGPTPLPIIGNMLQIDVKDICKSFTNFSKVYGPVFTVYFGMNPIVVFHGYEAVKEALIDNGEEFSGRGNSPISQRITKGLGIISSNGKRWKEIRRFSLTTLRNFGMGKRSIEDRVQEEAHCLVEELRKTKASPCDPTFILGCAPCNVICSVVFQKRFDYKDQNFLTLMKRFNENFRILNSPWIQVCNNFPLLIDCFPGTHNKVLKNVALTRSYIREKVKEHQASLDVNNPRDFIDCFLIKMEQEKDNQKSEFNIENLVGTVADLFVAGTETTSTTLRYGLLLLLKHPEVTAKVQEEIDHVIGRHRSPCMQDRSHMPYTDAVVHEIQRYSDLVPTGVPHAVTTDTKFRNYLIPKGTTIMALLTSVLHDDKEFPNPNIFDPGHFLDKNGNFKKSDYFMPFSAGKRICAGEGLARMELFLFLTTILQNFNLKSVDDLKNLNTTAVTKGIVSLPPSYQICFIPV
cytochrome P450 2C19, sequence (P33261 whole entry): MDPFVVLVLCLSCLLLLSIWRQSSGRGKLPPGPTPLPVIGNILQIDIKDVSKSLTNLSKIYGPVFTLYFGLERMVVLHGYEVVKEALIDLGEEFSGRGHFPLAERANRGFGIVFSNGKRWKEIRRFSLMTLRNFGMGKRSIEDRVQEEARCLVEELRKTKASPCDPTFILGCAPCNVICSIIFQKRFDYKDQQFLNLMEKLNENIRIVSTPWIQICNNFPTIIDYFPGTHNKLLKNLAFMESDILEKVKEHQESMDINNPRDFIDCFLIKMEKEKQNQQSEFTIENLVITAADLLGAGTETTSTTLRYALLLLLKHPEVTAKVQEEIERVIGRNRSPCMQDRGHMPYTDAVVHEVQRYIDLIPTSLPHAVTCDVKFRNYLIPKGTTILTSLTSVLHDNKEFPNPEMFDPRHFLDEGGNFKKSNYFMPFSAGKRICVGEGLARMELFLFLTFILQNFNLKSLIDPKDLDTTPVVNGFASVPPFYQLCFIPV
Human neutrophil elastase, sequence (P08246 30-247): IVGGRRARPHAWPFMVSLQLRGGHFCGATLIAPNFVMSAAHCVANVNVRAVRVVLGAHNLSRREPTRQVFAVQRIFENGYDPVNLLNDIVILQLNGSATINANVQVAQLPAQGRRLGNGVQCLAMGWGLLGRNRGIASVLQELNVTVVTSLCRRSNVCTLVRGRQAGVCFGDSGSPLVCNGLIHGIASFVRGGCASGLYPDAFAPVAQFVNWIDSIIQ
neutrophil elastase in human plasma, sequence (P08246 30-247): as above

With `CN1C(=O)N(c2cccc(C(F)(F)F)c2)C2=C(C(=O)CC2)C1c1ccc(C#N)cc1[S+](C)[O-]` (single isomer, unassigned) [Example 30A, 4-(3-Methyl-2,5-dioxo-1-(3-(trifluoromethyl)phenyl)-2,3,4,5,6,7-hexahydro-1H-cyclopenta[d]pyrimidin-4-yl)-3-(methylsulfinyl)benzonitrile], the Aqueous solubility in “Aqueous solubility” is 51 µg/mL. In the data set on Caco-2 cells, the PEAB worked out at 3.52 ×10⁻⁶ cm/s, the PEBA is 39 ×10⁻⁶ cm/s and the Efflux ratio is 11.1. Besides, the 50% effective concentration (EC50) in data set [1] (setting [5]) was 1 nM. For the same compound, the “t1/2 INVITRO” value in [2] (setting [6]) was more than 2.17 h. Further, the midpoint of inhibition in data set [3] (setting [7]), the IC50, lay at 1.3 nM.
`CN1C(=O)N(c2cccc(C(F)(F)F)c2)C2=C(C(=O)CC2)C1c1ccc(C#N)cc1[S+](C)[O-]` (single isomer, unassigned) [Example 30B, 4-(3-Methyl-2,5-dioxo-1-(3-(trifluoromethyl)phenyl)-2,3,4,5,6,7-hexahydro-1H-cyclopenta[d]pyrimidin-4-yl)-3-(methylsulfinyl)benzonitrile]: the solubility at 24 h in the data set “Aqueous solubility” was 65 µg/mL (≈ 137 µM). In data set [4], the Papp B→A at 10 µM is 71.4 ×10⁻⁶ cm/s and the efflux ratio at 10 μM came to 5.9. The compound further returned a PEAB with Caco-2 cells of 12 ×10⁻⁶ cm/s. In data set [1] (setting [5]), this compound displayed a half-maximal effective concentration (EC50) of 2 nM. For the same compound, in data set [2] (pooled human liver microsomes, 1 mg/ml protein, 1 μM test compound, 37° C., NADPH, read-out: t1/2 INVITRO), the half-life at 1 μM is more than 2.17 h. This compound also displayed an IC50 in [3] (setting [7]) of 2 nM.
`N#Cc1ccc(C2C3=C(CCC3=O)N(c3cccc(C(F)(F)F)c3)C(=O)N2C(=O)NCCCO)cc1` (stereo not drawn) [Example 7.3] returned an Aqueous solubility in the data set “Aqueous solubility” of 72 µg/mL. In the data set on Caco-2 cells, the PEAB turned out to be 9.49 ×10⁻⁶ cm/s, the PEBA is 67.1 ×10⁻⁶ cm/s and the Efflux ratio worked out at 7.1. Also, in data set [2] (setting [6]), the “t1/2 INVITRO” value was more than 2.17 h. Further, the “CL (predicted human hepatic in vivo blood clearance)” value with human hepatocytes was 7 mL/min/kg.
With `CS(=O)(=O)N1C(=O)N(c2cccc(C(F)(F)F)c2)C2=C(C(=O)CC2)[C@H]1c1ccc(C#N)cc1` [Example 9A, (R)-4-(3-(Methylsulfonyl)-2,5-dioxo-1-(3-(trifluoromethyl)phenyl)-2,3,4,5,6,7-hexahydro-1H-cyclopenta[d]pyrimidin-4-yl)benzonitrile], the IC50 at cytochrome P450 2C9 is more than 50000 nM; on cytochrome P450 2C8 it was more than 50000 nM; in data set [3] (setting [9]) it was 3 nM; on cytochrome P450 2C19 it was more than 50000 nM. In addition, the Papp A→B at 10 µM in data set [4] was determined as 43.9 ×10⁻⁶ cm/s. In addition, the Papp B→A at 10 µM in data set [4] stood at 73 ×10⁻⁶ cm/s. Also, in [4], the efflux ratio at 10 μM amounted to 1.7. The EC50 in data set [1] (setting [8]) was 2 nM. The compound further showed a half-life at 1 μM in data set [2] (human, microsomes) of more than 2.17 h. Further, the “CL (predicted human hepatic in vivo blood clearance)” value in the data set on human hepatocytes is 0 mL/min/kg.
For `C[C@H](O)CNC(=O)N1C(=O)N(c2cccc(C(F)(F)F)c2)C2=C(C(=O)CC2)C1c1ccc(C#N)cc1` (stereo partly drawn) [Example 41.1], the Aqueous solubility in “Aqueous solubility” was 97 µg/mL and 73 µg/mL. Further, in the data set on Caco-2 cells, the PEBA was 72.9 ×10⁻⁶ cm/s and 90.3 ×10⁻⁶ cm/s; the Efflux ratio was 8.9 and 4.8. Besides, in data set [2] (setting [6]), the “t1/2 INVITRO” value was more than 2.17 h. Further, the “CL (predicted human hepatic in vivo blood clearance)” value in the data set on human hepatocytes was 2 mL/min/kg.
`C[C@H](CO)NC(=O)N1C(=O)N(c2cccc(C(F)(F)F)c2)C2=C(C(=O)CC2)C1c1ccc(C#N)cc1` (stereo partly drawn) [Example 41.4] gave an Aqueous solubility in the data set “Aqueous solubility” of 92 µg/mL. For the same compound, in the data set on Caco-2 cells, the PEAB was 9.41 ×10⁻⁶ cm/s, the PEBA came to 81.5 ×10⁻⁶ cm/s and the Efflux ratio was 8.7. Further, the “t1/2 INVITRO” value in data set [2] (setting [6]) was more than 2.17 h. Besides, in the data set on human hepatocytes, the “CL (predicted human hepatic in vivo blood clearance)” value is 5 mL/min/kg.
`N#Cc1ccc(C2C3=C(CCC3=O)N(c3cccc(C(F)(F)F)c3)C(=O)N2C(=O)NC2(CO)CC2)cc1` (stereo not drawn) [Example 41.5] had an Aqueous solubility in “Aqueous solubility” of 82 µg/mL. Also, in the data set with Caco-2 cells, the PEAB is 8.85 ×10⁻⁶ cm/s, the PEBA was 77 ×10⁻⁶ cm/s and the Efflux ratio amounted to 8.7.
As to `N#Cc1ccc(C2C3=C(CCC3=O)N(c3cccc(C(F)(F)F)c3)C(=O)N2C(=O)NC2CCOCC2)cc1` (stereo not drawn) [Example 41.16], in the data set on Caco-2 cells, the PEAB turned out to be 58.9 ×10⁻⁶ cm/s, the PEBA is 57.7 ×10⁻⁶ cm/s and the Efflux ratio is listed as 1.0. Moreover, the “t1/2 INVITRO” value in data set [2] (setting [6]) is more than 2.17 h.
In “Aqueous solubility”, `CC(C)(O)CCNC(=O)N1C(=O)N(c2cccc(C(F)(F)F)c2)C2=C(C(=O)CC2)C1c1ccc(C#N)cc1` (stereo not drawn) [Example 41.17] returned an Aqueous solubility of 54 µg/mL. Further, in the data set with Caco-2 cells, the PEAB was found to be 23.4 ×10⁻⁶ cm/s, the PEBA is 80.7 ×10⁻⁶ cm/s and the Efflux ratio amounted to 3.5. Further, the “t1/2 INVITRO” value in [2] (setting [6]) was more than 2.17 h. Besides, the “CL (predicted human hepatic in vivo blood clearance)” value with human hepatocytes is 3 mL/min/kg.
`CC(C)(O)CNC(=O)N1C(=O)N(c2cccc(C(F)(F)F)c2)C2=C(C(=O)CC2)[C@H]1c1ccc(C#N)cc1` [Example 41A, (R)-4-(4-Cyanophenyl)-N-(2-hydroxy-2-methylpropyl)-2,5-dioxo-1-(3-(trifluoro-methyl)phenyl)-4,5,6,7-tetrahydro-1H-cyclopenta[d]pyrimidine-3(2H)-carboxamide] registered a solubility at 24 h in “Aqueous solubility” of 79 µg/mL (≈ 154 µM). The IC50 is more than 50000 nM on cytochrome P450 2C9, more than 50000 nM at cytochrome P450 2C8, less than 1 nM in data set [3] (setting [9]) and more than 50000 nM at cytochrome P450 2C19. In addition, the Papp A→B at 10 µM in data set [4] came to 11.1 ×10⁻⁶ cm/s. The Papp B→A at 10 µM in data set [4] is 75.1 ×10⁻⁶ cm/s. The efflux ratio at 10 μM in data set [4] amounted to 6.8. In addition, the concentration giving a half-maximal response (EC50) in data set [1] (setting [8]) is less than 1 nM. The half-life at 1 μM in data set [2] (human, microsomes) is more than 2.17 h. In addition, in the data set on human hepatocytes, the “CL (predicted human hepatic in vivo blood clearance)” value is 0 mL/min/kg.
In “Aqueous solubility”, `CNC(=O)N1C(=O)N(c2cccc(C(F)(F)F)c2)C2=C(C(=O)CC2)[C@H]1c1ccc(C#N)cc1S(C)(=O)=O` [Example 47.1] returned a solubility at 24 h of 83 µg/mL (≈ 156 µM). The IC50 on cytochrome P450 2C9 was more than 50000 nM; at cytochrome P450 2C8, more than 50000 nM; in data set [3] (setting [9]), less than 1 nM; at cytochrome P450 2C19, more than 50000 nM. The Papp A→B at 10 µM in data set [4] was 8.13 ×10⁻⁶ cm/s. Also, the Papp B→A at 10 µM in data set [4] was 65.1 ×10⁻⁶ cm/s. Also, in data set [4], the efflux ratio at 10 μM is 8. The EC50 in data set [1] (setting [8]) was less than 1 nM. Besides, the half-life at 1 μM in data set [2] (human, microsomes) was more than 2.17 h. Also, the “CL (predicted human hepatic in vivo blood clearance)” value with human hepatocytes was 0 mL/min/kg.
`CCNC(=O)N1C(=O)N(c2cccc(C(F)(F)F)c2)C2=C(C(=O)CC2)[C@H]1c1ccc(C#N)cc1S(C)(=O)=O` [Example 47.2]: the solubility at 24 h in “Aqueous solubility” was 45 µg/mL (≈ 82.3 µM). For the same compound, the IC50 at cytochrome P450 2C9 is more than 50000 nM; at cytochrome P450 2C8, more than 50000 nM; in data set [3] (setting [9]), less than 1 nM; at cytochrome P450 2C19, more than 50000 nM. Also, the Papp A→B at 10 µM in data set [4] came to 12.8 ×10⁻⁶ cm/s. Moreover, the Papp B→A at 10 µM in [4] amounted to 84.5 ×10⁻⁶ cm/s. Besides, in data set [1] (setting [8]), the EC50 is less than 1 nM. For the same compound, in data set [2] (human, microsomes), the half-life at 1 μM was more than 2.17 h. Also, the “CL (predicted human hepatic in vivo blood clearance)” value in the data set with human hepatocytes was 1 mL/min/kg.

The values above are taken from patent publication US9290459B1, “Substituted bicyclic dihydropyrimidinones and their use as inhibitors of neutrophil elastase activity” (Boehringer Ingelheim International GmbH, priority 2013, dated 2016).
